Measured values: US4409228A, “Andrexiant aminopiperidines intermediates thereto and drugs containing same” (Sanofi, priority 1979, dated 1983)
Structures can show the parent of a compound that is named as a salt. Where two headings read alike, the source gives them in different places.

What was measured:
Format in all cases: in vivo
[1] = Acute toxicity, LD50 in the rat by the oral route; details: in vivo; for selectivity ratio: ratio acute toxicity LD50 / anorexiant ED50 (therapeutic index), read-out: A/B
Description: (§1) the acute toxicity, expressed at LD50 in the rat by the oral route (data A);

[2] = Anorexiant activity, food consumption method in the rat, oral (ED50); details: for ED50: read-out: B anorexiant activity ED50; for anorexiant activity (in words): oral
Method: (§2) The anorexiant activity was assessed by the food consumption method in the rat. Female rats weighing 200 g were used, trained for 10 days to eat during a period of 4 hours and selected on the eighth day. After the tenth day, the randomized animals were divided into a "control group", treated solely with the carrier, and into several "treated groups". The treatment was effected by the intraperitoneal route 30 minutes before the presentation of food and the quantity of food consumed in the course of the first hour was then measured. The data in Table I indicate the percentage of inhibition of the food consumption of the animals treated with the compounds according to the present invention with respect to the controls.
The anorexiant activity by the oral route of a product according to the present invention, 4-amino-1-(6-chloro-2-pyridyl)piperidine in the form of mono hydrochloride (CM 57227, compound of Example 1), was tested in accordance with the food consumption method described hereinabove; as well known anorexiant product, fenfluramine, as well as 1-(6-chloro-2-pyridyl)piperazine in the form of monohydrochloride, described in U.S. Pat. No. 4,078,063, and 1-(6-chloro-2-pyrazinyl) piperazine in monohydrochloride form, described in British Pat. No. 1,492,528, were used as reference products.
the anorexiant activity, expressed as oral dose inhibiting by 50% the food consumption (ED50, data B);

[3] = Locomotor activity in the rat, oral (inhibition of spontaneous motility, photoelectric cell); details: for ED50 at 0.5 h / selectivity ratio: in vivo; for ED50 at 0.5 h: female rats, oral dose inhibiting spontaneous motility by 50%, pulses during 10 minutes, 30 minutes after treatment, read-out: C locom. act. inhibition ID50; for selectivity ratio: ratio locomotor ID50 / anorexiant ED50 (therapeutic index), read-out: C/B; for selectivity ratio / inhibition of locomotor activity (in words): oral; for inhibition of locomotor activity (in words): relative to anorexiant ED50
Method: The products were also assessed as a function of their action on the locomotor activity in the rat. To this end, female rats weighing about 200 g were used, to which the compounds were administered by the oral route. After 30 minutes, the treated animals were placed in a cage (80×80 cm) provided with a photoelectric cell for measuring the spontaneous movements, and the number of pulses transmitted to the cell for 10 minutes was recorded. The inhibition of the locomotor activity of each substance (6 to 10 animals per dose) was expressed as a percentage with respect to the controls.
the action on the locomotor activity, expressed as oral dose inhibiting by 50% the spontaneous motility, namely the number of pulses transmitted to the photoelectric cell during the 10 minutes (ID50, data C);

male mice = test: Acute toxicity, zone of mortality, mice, intraperitoneal; details: i.p., 48 h observation, doses with lowest (at least 1 death) and highest mortality
Method: With respect to their degree of activity, the 4-amino-1-(2-pyridyl)piperidines of the present invention are sparingly toxic and present a good therapeutic index. In Table I hereinbelow, the acute toxicity is expressed in the form of "zone of mortality". 6 batches of male mice weighing about 20 g were used, in which were injected the compounds of the present invention, dissolved or suspended in carboxymethylcellulose, by the intraperitoneal route, at at least four doses for each batch of animals. […] The "mortality zone" is represented by the doses at which the lowest mortality (at least 1 death) and the highest are observed.

[4] = Anorexiant activity, food consumption method in the rat, intraperitoneal; details: female rats, i.p., food consumed in first hour, vs controls
Method: as §2

cerebral serotonin = test: Cerebral levels of serotonin after intraperitoneal administration in the rat; details: for Cerebral levels of serotonin % with respect to controls: 60 minutes before sacrifice
Method: Table III below summarises the cerebral levels of serotonin after intraperitoneal administration in the rat of a compound according to the present invention, 4-amino-1-(6-chloro-2-pyridyl) piperidine in monohydrochloride form (CM 57227, product of Example 1). Fenfluramine was used as reference product.
The animals were treated 60 minutes before sacrifice.

rat = test: Acute toxicity, LD50 in the rat by the oral route
Description: as §1

| SMILES | LD50 [1] [mg/kg] | selectivity ratio [1] | ED50 ([2]; Rattus norvegicus, po) [mg/kg] | ED50 at 0.5 h [3] [mg/kg] | selectivity ratio [3] | inhibition of locomotor activity (in words) [3] | Mortality zone (male mice) [mg/kg] | other results |
| --- | --- | --- | --- | --- | --- | --- | --- | --- |
| Clc1cncc(N2CCNCC2)n1 [1-(6-chloro-2-pyrazinyl)piperazine HCl, 1-(6-chloro-2-pyrazinyl) piperazine] | 79.6 | 46.8 | 1.7 | 0.6 | 0.3 | inhibit the locomotor activity at doses even lower than the anorexiant ED50 | – | anorexiant activity (in words) ([2]; rat): very active as anorexiants |
| Clc1cccc(N2CCNCC2)n1 [1-(6-chloro-2-pyridyl)piperazine HCl, 1-(6-chloro-2-pyridyl)piperazine] | 174 | 48.3 | 3.6 | 2.1 | 0.58 | inhibit the locomotor activity at doses even lower than the anorexiant ED50 | – | anorexiant activity (in words) ([2]; rat): very active as anorexiants |
| NC1CCN(c2cccc(Cl)n2)CC1 [CM 57227, 4-amino-1-(6-chloro-2-pyridyl) piperidine] | 190 | 24.3 | – | 60 | 7.7 | – | 100 to 150 | Food consumption % inhibition ([4]; 10 mg/kg): 70.8%; ED50 ([2]; rat, oral dose inhibiting food consumption by 50%): 7.8 mg/kg; Cerebral levels of serotonin % with respect to controls (cerebral serotonin; 5 mg/kg i.p.): 105%; Cerebral levels of serotonin % with respect to controls (cerebral serotonin; 10 mg/kg i.p.): 120% |
| COc1cccc(N2CCC(N)CC2)n1 [CM 57366, 4-amino-1-(6-methoxy-2-pyridyl) piperidine] | – | – | – | – | – | – | 150 to 200 | Food consumption % inhibition ([4]; 30 mg/kg): 67.0% |
| NC1CCN(c2cccc(Sc3ccccc3)n2)CC1 [CM 57369, 4-amino-1-(6-phenylthio-2-pyridyl)piperidine] | – | – | – | – | – | – | 150 to 200 | Food consumption % inhibition ([4]; 40 mg/kg): 95.2% |
| Cc1cccc(N2CCC(N)CC2)n1 [CM 57371, 4-amino-1-(6-methyl-2-pyridyl)piperidine] | – | – | – | – | – | – | 175 to 225 | Food consumption % inhibition ([4]; 40 mg/kg): 77.2% |
| NC1CCN(c2cccc(Br)n2)CC1 [CM 57373, 4-amino-1-(6-bromo-2-pyridyl) piperidine] | – | – | – | – | – | – | 100 to 175 | Food consumption % inhibition ([4]; 20 mg/kg): 89.8% |
| NC1CCN(c2cccc(OCC(F)(F)F)n2)CC1 [CM 57385, 4-amino-1-[6-(2,2,2-trifluoro)ethoxy-2-pyridyl] piperidine] | – | – | – | – | – | – | 150 to 250 | Food consumption % inhibition ([4]; 30 mg/kg): 78.2% |
| CCNC(C)Cc1cccc(C(F)(F)F)c1 (centres unmarked) [fenfluramine] | – | 25.2 | 4 | 12 | 3 | much greater inhibiting action on the locomotor activity | – | A Acute toxicity LD50 (rat): 100.9 mg/kg; therapeutic index A/B, comparison (in words) (rat): almost equal to that of the 4-amino-1-(6-chloro-2-pyridyl)piperidine of the present invention; Cerebral levels of serotonin % with respect to controls (cerebral serotonin; 3.75 mg/kg i.p., * significant: p < 0.01): 69%; Cerebral levels of serotonin % with respect to controls (cerebral serotonin; 7.5 mg/kg i.p., * significant: p < 0.01): 51%; Cerebral levels of serotonin % with respect to controls (cerebral serotonin; 15 mg/kg i.p., * significant: p < 0.01): 42%; cerebral levels of serotonin (in words) (cerebral serotonin; i.p., anorexiant or equivalent doses): causes a significant reduction in cerebral serotonin |
